{"source": "patent US20260242390A1", "about": "“TOTAL SYNTHESES OF PORTIMINE A AND ANALOGUES THEREOF AS SMALL MOLECULE MODULATORS OF NMD3” (priority 2023, published 2026)", "key": {"[1]": {"tested_on": "HeLa", "assay": "Broad cell line profiling, HeLa", "type": "cell-based", "details": "Homo sapiens, Cervical Adenocarcinoma, read-out: PA IC50", "description": "• A panel of human and mouse cancer cell types used to assess the breadth of PA activity, including multiple therapy resistant metastatic mesenchymal tumor cell lines and primary glioblastoma patient-derived metastatic stem/tumor initiating cell populations."}, "[2]": {"tested_on": "XPO1", "assay": "XPO1 protein level in Jurkat cells", "type": "cell-based, human", "protocol": "FIG. 7. Portimine A targets NMD3 and prevents polysome formation. […] (A) Immunoblot showing reduced NMD3 levels in shNMD3 Jurkat and HeLa cells. […] Jurkat cells were treated with 12.5 nM of PA for 12 or 24 hours. Jurkat and HeLa cells were treated with 5 nM or 150 nM of PA for 24 hours. Data represents mean±SD of biologically replicated experiments (n=3). […] Cell lysates were fractionated by sucrose gradient (5-50%) and each fraction were analyzed by western blot. eIF6 levels increase in 60S subunit fraction and decrease in ribosome-free fractions after PA treatment. RPS6, a 40S and polysome subunits marker, is decreased in polysome fractions after PA treatment. Results are representative of three independent experiments. […] Relative protein levels in each fraction were normalized to the peak fraction of the indicated protein from the DMSO cells and plotted. Data represents mean±SD of biologically replicated experiments (n=3). Statistical analysis was performed using multiple unpaired Student t-test. * p≤0.05; ** p≤0.01; *** p≤0.005; **** p≤0.0001. Treatment condition: Jurkat (5 M per condition); Incubate cells (1 M/mL) with inhibitors for 6 hr, 12 hr and 24 hr, respectively.\n• 1) Portimine A and its functional analogs show stereo-selective acute toxicity in cancer cells (FIG. 1). […] (B) Structure of portimine related analogs: phenyl-portimine A (Ph-PA, 36) and epi-portimine A (ePA, 38). […]"}}}
{"smiles": "C=CC1=C[C@@H]2[C@@H]3O[C@]4(CC[C@H](O4)C(C)C[C@@H](O)C3=O)CC(O)C3=NCC[C@@]32CC1", "note": "(some centres unmarked) [PA, portimine A]", "values": [{"measurement": "IC50", "setting": "[1]", "result": 1.6, "unit": "nM"}, {"measurement": "XPO1 levels", "setting": "[2]", "result": "unaffected"}]}
